For one data set, the target named is T1, human PDE4D (Homo sapiens, UniProt Q08499).
T1 construct: PDE4 cDNA constructs containing the coding regions of the three isoenzymes; made in house; host or cells: Sf21 insect cells (baculovirus, Bac-To-Bac)
The data set can be described thus: PDE4 isoenzyme inhibition assay (SPA), PDE4D. The class given is biochemical. Conditions: [3H]-cAMP, 1 μM cAMP, 30-60 minutes at room temperature, 1% DMSO. From the text: PDE4 Isoenzyme Inhibition Assay
Cloning: GATEWAY flanked PDE4 cDNA constructs containing the coding regions of the three isoenzymes, human PDE4A, human PDE4B, and human PDE4D are generated by PCR and transposed into the GATEWAY shuttle vector pDONOR-201. In addition a 6-histidine tag is introduced by PCR onto the carboxyl terminal end of each of the constructs to facilitate protein purification. Following sequence verification, the PDE4 constructs are transposed into the GATEWAY expression vector pDEST-8, Positive recombinants are selected and transposed into E. coli strain DH10Bac and bacmid produced transfected into SF21 cells using Bac-To-Bac (Invitrogen Life Technologies). Positive transfections are selected and used to generate high titer viral stocks for use in protein expression.
PDE4 Expression: Sf21 cells are grown to a density of 2×10^6 cells/ml and infected with human PDE4A, PDE4B or PDE4D3 containing baculovirus to a multiplicity of infection (m.o.i.) of 1 for 72 hours. The infected cells are harvested by centrifugation at 1,400 g for 4 minutes at 4° C. and the cell pellets are frozen at −80° C. Sf21 (Spodoptera frugiperda 21) insect cells are routinely maintained at densities between […] and 3×10^6 cells/ml in SF00 Serum Free Medium (Invitorgen Life Technologies). Sf21 cells ([…]) are resuspended in 100 ml cold (4° C.) Lysis Buffer (50 mM Na2HPO4, 200 mM NaCl, 10 mM Imidazole). Cells are incubated on ice for 30 minutes then centrifuged at 15,000 g for 20 minutes at 4° C.
PDE4 Purification: The 6 Histidine-tagged PDE4 proteins are isolated from crude cell lysates by a batch-wise Ni-NTA purification strategy (QIAGEN). N-NTA resin is first pre-rinsed to remove ethanol preservative and equilibrated with Lysis Buffer. Cell lysate is added, (10 ml 50% Ni-NTA slurry resin per 50 ml lysate), and gently rotated on a mixer at 4° C. for 1-2 hours. The sample is then centrifuged at 1,000 g for 5 minutes at 4° C. using Denley benchtop centrifuge. The supernatant is removed and the resin is washed 3 times with 50 ml ice cold Wash Buffer (50 mM Na2HPO4, 300 mM NaCl and 20 mM imidazole) followed by centrifugation at 1,000 g for 5 min at 4° C. The 6His-tagged protein is eluted from the resin with 3×5 ml ice cold Elution Buffer (50 mM NaH2PO4, 300 mM NaCl, 250 mM imidazole) and collected by centrifugation at 1,000 g for 5 minutes at 4° C. The supernatants are then pooled before buffer exchange and concentration using a VivaScience 20 ml SK 0.2 μM Concentrator. Samples are aliquoted and stored at −20° C.
PDE4 Assay: The assay is based on Amersham Pharmacia Biotech Scintillation Proximity Assay (SPA) technology. Enzyme is diluted with enzyme dilution buffer (10 mM Tris-HCl, pH7.5 containing 1 mM EDTA) in order to obtain between 10-30% total substrate hydrolysis during the assay. The enzymatic reaction is started by adding 10 μl diluted enzyme to 80 μl substrate (0.1 μCi [3H]-cAMP, 1 μM cAMP) and 10 μl inhibitor solution in a 96-well microtiter plate. After 30-60 minutes incubation at room temperature the reaction is stopped by adding 50 μl PDE SPA beads (20 mg/ml). After 30 minutes the plate is centrifuged (3000 g, 10 minutes) and counted (Packard TopCount).
Inhibitor stock solutions are prepared in 100% dimethylsulphoxide (DMSO) and diluted with DMSO/water to achieve 10 concentrations to cover the range of 0-100% inhibition. The concentration of DMSO is kept constant at 1% (v/v) throughout the assay.
The concentration at which 50% inhibition occurs (IC50) is determined from inhibition—concentration curves in a conventional manner.

The structures appear in SMILES notation. Structures can show the parent of a compound that is named as a salt.

T1 sequence (Q08499 1-673 isoform Q08499-2): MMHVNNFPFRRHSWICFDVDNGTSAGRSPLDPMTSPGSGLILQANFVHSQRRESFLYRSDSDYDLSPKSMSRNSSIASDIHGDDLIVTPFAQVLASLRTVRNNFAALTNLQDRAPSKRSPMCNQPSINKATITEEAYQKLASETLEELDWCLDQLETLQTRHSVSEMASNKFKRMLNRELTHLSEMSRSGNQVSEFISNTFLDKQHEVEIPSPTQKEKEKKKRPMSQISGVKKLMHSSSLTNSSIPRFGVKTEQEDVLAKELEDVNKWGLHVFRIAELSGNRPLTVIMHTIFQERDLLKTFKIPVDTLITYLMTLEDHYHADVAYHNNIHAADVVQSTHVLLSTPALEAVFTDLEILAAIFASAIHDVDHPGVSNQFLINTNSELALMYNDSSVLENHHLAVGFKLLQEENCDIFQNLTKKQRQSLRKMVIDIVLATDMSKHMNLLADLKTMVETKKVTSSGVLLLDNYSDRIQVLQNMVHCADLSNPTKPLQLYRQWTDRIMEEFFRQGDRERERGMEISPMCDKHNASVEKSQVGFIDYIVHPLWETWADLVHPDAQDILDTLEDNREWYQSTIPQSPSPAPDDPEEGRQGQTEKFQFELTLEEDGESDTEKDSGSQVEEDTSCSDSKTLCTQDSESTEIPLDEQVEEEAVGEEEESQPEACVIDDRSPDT

A word on the melting point: it is the temperature of the solid-liquid transition. `N#Cc1cccc(-c2nc(C3CCC(C(=O)O)CC3)cc3cccnc23)c1` (stereo not drawn) (as salt: potassium) [Example 3, 4-[8-(3-Cyano-phenyl)-[1,7]naphthyridin-6-yl]-cyclohexanecarboxylic acid] showed a melting point above 250 °C.
The term IC50 denotes the point on the concentration scale where inhibition reaches its midpoint. As for `CSc1cccc(-c2nc(C3CCC(C(=O)O)CC3)cc3cccnc23)c1` (stereo not drawn) [Example 15, 4-[8-(3-Methylsulfanyl-phenyl)-[1,7]naphthyridin-6-yl]-cyclohexanecarboxylic acid], the melting point is 177.6 to 178.2 °C. Further, half-maximal inhibition against human PDE4D (IC50) required 9 nM.
`COc1cccc(-c2nc(C3CCC(C(=O)O)CC3)cc3cccnc23)c1` (stereo not drawn) [Example 10, 4-[8-(3-Methoxy-phenyl)-[1,7]naphthyridin-6-yl]-cyclohexanecarboxylic acid] returned a melting point of 209 to 212 °C. For the same compound, at human PDE4D, the IC50 was found to be 25 nM.
In turn, `N#Cc1cccc(-c2nc(C3CCC(C(=O)O)CC3)cc3cccnc23)c1` (stereo not drawn) [Example 3, 4-[8-(3-Cyano-phenyl)-[1,7]naphthyridin-6-yl]-cyclohexanecarboxylic acid] had an IC50 at human PDE4D of 9 nM.
Turning to `CCOC(=O)C1CCC(c2cc3cccnc3c(-c3cccc(C#N)c3)n2)CC1` (stereo not drawn) [Example 1, 4[8-(3-Cyano-phenyl)-[1,7]naphthyridin-6-yl]-cyclohexanecarboxylic acid ethyl ester], at human PDE4D, the IC50 came out at 38 nM.
`O=C(O)C1CCC(c2cc3cccnc3c(-c3cccc(F)c3)n2)CC1` (stereo not drawn) [Example 12, 4-[8-(3-Fluorophenyl)-[1,7]naphthyridin-6-yl]-cyclohexanecarboxylic acid] yielded an IC50 on human PDE4D of 21 nM.
`O=C(O)C1CCC(c2cc3cccnc3c(-c3cccc(OC(F)(F)F)c3)n2)CC1` (stereo not drawn) [Example 14, 4-[8-(3-Trifluoromethoxyphenyl)-[1,7]naphthyridin-6-yl]-cyclohexanecarboxylic acid] returned an IC50 against human PDE4D of 57 nM.

The values above are taken from US7273875B2, “Naphthyridine derivatives, their preparation and their use as phosphodiesterase isoenzyme 4 (PDE4) inhibitors” (Novartis AG, priority 2001, dated 2007).
